Measurements reported in PubChem BioAssay (NCI).
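Step 1: Grow cells in 96-well plates. Step 2: Expose to compound for 48 hours at 5 concentrations. Step 3: Interpolate endpoints linearly; if unreached, use highest concentration. GI50 is the concentration that inhibits growth by half. The concentration for full growth arrest is given as TGI.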

Columns and labels:
Assay in all cases: inhibition of tumour cell growth, NCI panel, 48 h
[1] = system: SN12C renal
[2] = system: SF-295 CNS
[3] = system: TK-10 renal
[4] = system: SNB-75 CNS
[5] = system: UACC-257 melanoma
[6] = system: SF-268 CNS
[7] = system: EKVX NSCLC
[8] = system: OVCAR-5 ovarian

SMILES | TGI [1] [µM] | TGI [2] [µM] | TGI [3] [µM] | TGI [4] [µM] | TGI [5] [µM] | TGI [6] [µM] | TGI [7] [µM] | TGI [8] [µM] | GI50 [1] [µM] | GI50 [2] [µM] | GI50 [3] [µM] | GI50 [4] [µM] | GI50 [5] [µM] | GI50 [6] [µM] | GI50 [7] [µM] | GI50 [8] [µM]
O=C1CC(CC(=O)C2CCCCC2=O)C(=O)N1 (centres undefined) | > 100 | > 100 | > 100 | > 100 | > 100 | > 100 | > 100 | > 100 |  |  |  |  |  |  |  | 
O=C(N/N=C/c1ccccc1O)N/N=C/c1ccccc1O | > 100 | > 100 | > 100 | > 100 | > 100 | > 100 | > 100 | > 100 |  |  |  |  |  |  |  | 
C/C=C/C(C#N)O[Si](C)(C)C (centres undefined) | > 100 | > 100 | > 100 | > 100 | > 100 | > 100 | > 100 | > 100 |  |  |  |  |  |  |  | 
Cc1c(OC(C)C(=O)O)ccc2c(-c3ccccc3)cc(=O)oc12 (centres undefined) | > 100 | > 100 | > 100 | > 100 | > 100 | > 100 | > 100 |  |  |  |  |  |  |  |  | 
Cn1c(=O)c(N=Nc2c(=O)n(C)c(=O)n3c2[nH]c2ccccc23)c2[nH]c3ccccc3n2c1=O |  | > 100 | > 100 | 91.6 | > 100 | > 100 | > 100 | > 100 |  |  |  |  |  |  |  | 
O=C(NCCCOC(=O)CCCCCCCCC(=O)OCCCNC(=O)NC(=O)c1c[nH]c(=O)[nH]c1=O)NC(=O)c1c[nH]c(=O)[nH]c1=O | > 100 | > 100 | > 100 |  | > 100 | > 100 | > 100 | > 100 |  |  |  |  |  |  |  | 
c1cc[c]([Sn][c]2ccccc2)cc1 | 42.1 | 69.7 | 51.2 | > 100 | > 72.9 | 25 | > 61.2 | > 57.5 | 20 | 27.8 | 20.1 | 30.2 | 29.6 | 14.5 | 28.3 | 15
CC(=O)OCc1c2ccccc2c(C)c2c1cc(F)c1ccccc12 | 33.8 | > 100 | > 100 | 58.4 | > 100 | 85.3 | > 100 | > 100 |  |  |  |  |  |  |  | 
Cc1nc(C(N)=O)c(N)n1CCN1CCN(C(=O)CCCCCCCCCCNC2N=CNc3nc[nH]c32)CC1 (centres undefined) | > 100 | > 100 | > 100 |  | 45.7 | > 100 |  | > 100 |  |  |  |  |  |  |  | 
CCc1cccc(C)c1NS(=O)(=O)c1ccccc1 |  | > 100 | > 100 | > 100 | > 100 |  | > 100 | > 100 |  |  |  |  |  |  |  | 
CN(C)CCNC(=O)Cn1ccc(=O)c2cc([N+](=O)[O-])ccc21 | > 100 | > 100 | > 100 |  | > 100 | > 100 | > 100 | > 100 |  |  |  |  |  |  |  | 
C[N+](C)(C)CCC(=O)CC[N+](C)(C)C |  | 34.5 | 34.6 | 73.3 | 35.9 | 42.9 | > 100 |  |  |  |  |  |  |  |  | 
COC(=O)c1sc(C(=O)OC)c2c1CS(=O)C2 |  | > 100 | > 100 | > 100 | > 100 | > 100 | > 100 | > 100 |  |  |  |  |  |  |  | 
N#CC(N)=Nc1ccccc1 | > 100 | > 100 | > 100 | > 100 |  | > 100 | > 100 | > 100 |  |  |  |  |  |  |  | 
O=C1C2C3C=C4c5ccccc5N(c5ccccc5)C4(C2C(=O)N1c1ccccc1)C1C(=O)N(c2ccccc2)C(=O)C31 (centres undefined) | > 100 | > 100 | > 100 | > 100 | > 100 | > 100 |  | > 100 |  |  |  |  |  |  |  | 
O=C(COc1ccccc1Cl)N1N=C(c2ccc(Cl)cc2)CC1(O)c1ccccc1 (centres undefined) | > 100 | > 100 | > 100 | > 100 | > 100 | > 100 |  | > 100 |  |  |  |  |  |  |  | 
CC1=C(C(=O)Nc2ccccc2C)C(c2ccc(Cl)cc2)C(C(=O)Nc2ccccc2C)=C(C)N1 | > 100 | > 100 | > 100 |  | > 100 | > 100 | > 100 | > 100 |  |  |  |  |  |  |  | 
Cc1c(/C=N/NC(=O)c2ccccc2O)c(=O)n(-c2ccccc2)n1C | > 100 | > 100 | > 100 | > 100 | > 100 | > 100 | > 100 |  |  |  |  |  |  |  |  | 
CCc1c(C#N)c(=O)[nH]c(=O)n1CCN1CCN(C(=O)NCCCCCCNC(=O)N2CCN(CCn3c(CC)c(C#N)c(=O)[nH]c3=O)CC2)CC1 | > 100 | > 100 | > 100 |  | > 100 |  | > 100 |  |  |  |  |  |  |  |  | 
COC1=NCc2ccccc2-c2ccccc21 | > 100 | > 100 | > 100 | > 100 | > 100 | > 100 |  |  |  |  |  |  |  |  |  | 
COc1ccc2nccc(C3=CCC4CCN(C(=O)c5ccccc5)C3C4)c2c1 (centres undefined) | > 100 | > 100 | > 100 | > 100 | > 100 | > 100 | > 100 |  |  |  |  |  |  |  |  | 
